In patent publication US5032398A, “Selective modification of the catalytic subunit of pertussis toxin” (priority 1986, dated 1991):

What was measured:
[1] = target: T1, pertussis toxin (Bordetella pertussis, UniProt P04977); assay: NADase activity of pertussis toxin after activation and treatment with alkylating reagent (Example One); type: biochemical
Source text: The ADP-ribosylating activity of the pertussis toxin can be detected as a nicotinamide-adenine dinucleotide-glycohydrolase (NADase) activity, which can be conveniently assayed through the use of [nicotinamide-^14 C] or [nicotinamide-^3 H] NAD. NAD consists of ADP-ribose linked to nicotinimide, and thus the extent of the release of ADP-ribose from NAD is an indication of the ability of the toxin to cause ill effects. In conducting this assay of the hydrolysis of labelled NAD, ion-exchange column chromatography was employed to resolve the product from the substrate according to the method described by Moss et al., J. Biol. Chem. 258, 11879 (1983) which is incorporated herein by reference. However, several modifications to this method were employed. First, a QAE-Sephadex resin was employed, as was a [nicotinamide-^3 H] NAD. Specifically, a 2 ml QAE-Sephadex column was first washed with 10 ml 1NHCl, followed by 10 ml H2 O, 20 ml 0.5M Tris-HCl pH 7.0, and 40 ml H2 O. [^3 H] NAD was applied, and the column washed with 20 ml water to elute impurities. Purified [^3 H] NAD was eluted with 0.25M NaCl, and stored in small aliquots at -70° C. The purified [^3 H] NAD contributed 50 mM NaCl (final concentration) to the NADase assays.
Before the end of the reaction, 2 ml QAE-Sephadex columns were treated with 10 ml 0.1M imidazole-HCl pH 7.0 with 1.0M NaCl, followed by 40 ml water. The NADase reaction (in 100 μl) was terminated by adding 0.85 ml of ice-cold water, and the entire 0.95 ml was pipetted into a treated QAE column. The labelled nicotinamide was then eluted with 3 ml of water directly into a scintillation vial and counted. The absorbed labelled NAD was then eluted into radioactive waste with 10 ml 0.1M imidazole-HCl pH 7.0 with 1.0M NaCl, and the column stored partially immersed in a water bath until the next assay.
In order to determine if any active toxin remained after the inactivation, a large excess of sulfhydryl reductant was added to each tube to scavenge unreacted sulfhydryl reagent. The NADase activity of the preparation was then measured. The three incubations were performed under a nitrogen atmosphere using degassed solutions to prevent oxidation of sulfhydryl groups which would prevent the sulfhydryl reagent from modifying the sulfhydryl group.
The pertussis toxin in the Examples comprised 50 μg of the toxin in a 500 μl solution of 10 mM sodium phosphate-50 mM sodium chloride-water solution having a pH of 7. The enzymatic activity was detected as the hydrolysis of nicotinamide labelled NAD and ion-exchange column chromatography to resolve the product from the substrate. Unless otherwise noted, the assay was initiated by adding 0.5 to 2.5 μg of the toxin to a reaction mixture for a final volume of 100 μl. The NADase reaction was terminated by adding 0.85 ml of ice-cold water. The entire 0.95 ml was then pipetted into a QAE-Sephadex column (chloride form) and the labelled nicotinamide eluted with 3 ml of water directly into a scintillation vial and counted. […] One unit of NADase activity is defined as 1 pmol NAD hydrolyzed per hour.
One-half microgram of pertussis toxin was incubated for thirty minutes at […] in 100 mM Tris-HCl (pH 8.0), with or without activators, in a volume of 50 μl. When present, ATP and pyrophosphate were present in a concentration of 2 mM, CHAPS at 2 weight percent, and DTT in a concentration of either 2 mM (trial 1) or 1 mM (trial 2). 10 μl of water with or without iodoacetate or N-ethylmaleimide was then added and a second incubation conducted at 30° C. for either thirty minutes (trial 1) or fifteen minutes (trial 2). After this incubation, 10 μl of 200 mM DTT was added to each tube, and the tubes were incubated for thirty (trial 1) or sixty minutes (trial 2) on ice to scavenge the iodoacetate or N-ethylmaleimide.

[2] = target: T1, pertussis toxin; assay: Inactivation of NADase activity by iodoacetate after different activator combinations (Example Seven); type: biochemical
Experimental: Pertussis toxin was incubated first at 37° C. for fifteen minutes in […] buffer A (100 mM Tris-HCl, pH 8.0 with 1 mM NaEDTA). EDTA was added to chelate divalent cations, which may promote oxidation of free --SH groups. During this incubation, DTT and ATP were present in concentrations of 1 mM each, and CHAPS was present in a concentration of 1 weight percent. Labelled iodoacetate was then added ([…], 12.5 mM), and the tube incubated on ice for twenty hours. The sample was then mixed with sodium dodecylsulfate and β-mercaptoethanol, heated at 95° C. for one minute, and electrophoresed. After electrophoresis, the gel was fixed, treated with Fluorohance (Research Products International), dried and used to expose x-ray film.
Pertussis toxin was incubated at 37° C. for fifteen minutes as described in Example Six, and then a second incubation was begun by adding 10 μl buffer A with or without 12.5 mM iodoacetate, mixing the contents of the tube and lowering the temperature to 30° C. After fifteen minutes, the tubes were shifted to an ice bath for ten minutes. A third incubation was then begun by adding 10 μl buffer A containing 200 mM DTT to those tubes containing iodoacetate to scavenge the iodoacetate. To those tubes not containing iodoacetate during the second incubation, a mixture of 200 mM DTT and 12.5 mM iodoacetate in buffer A, previously incubated for an hour on ice, was added. The third incubation was continued for one hour on ice.
The contents of each tube were then assayed for NADase activity by adding 40 μl of a reaction mix consisting of buffer A containing carbon-14 labelled NAD (final concentration in the 100 μl final volume was 25 μM), and 50 mM sodium chloride. Different reaction mixtures with various additions were used, so that in all tubes the final concentration of ATP was 1 mM and CHAPS was 1 weight percent. The assay was conducted at 37° C. for sixty minutes, and the released labelled nicotinimide was isolated and counted. The iced controls were formed by incubating pertussis toxin (1 μg) on ice in 10 mM sodium phosphate (pH 7) and 50 mM sodium chloride during the first three incubations. […] The first three incubations were done under a nitrogen atmosphere using degassed conditions, and the second and third incubations were done under subdued light.

T1 sequence (P04977 35-269 limits assumed): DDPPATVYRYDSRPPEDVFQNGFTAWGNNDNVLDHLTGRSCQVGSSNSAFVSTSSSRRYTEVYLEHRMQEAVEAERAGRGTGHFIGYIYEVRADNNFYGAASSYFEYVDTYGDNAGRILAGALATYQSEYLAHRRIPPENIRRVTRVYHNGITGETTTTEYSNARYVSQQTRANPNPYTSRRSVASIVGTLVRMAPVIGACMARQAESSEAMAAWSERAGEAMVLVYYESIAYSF

SMILES: O=C(O)CI [iodoacetate]
- NADase activity (%) of the activity of toxin treated the same way without alkylating agent ([1]; first incubation: DTT 1 mM, CHAPS 2%, ATP 2 mM, Experiment #2, second incubation 15 min at 30° C, 25 μM NAD): 3%
- NADase activity (%) of the activity of toxin treated the same way without alkylating agent ([1]; first incubation: DTT 1 mM, CHAPS 2%, pyrophosphate 2 mM, Experiment #2, second incubation 15 min at 30° C, 25 μM NAD): 31%
- NADase activity (%) of the activity of toxin treated the same way without alkylating agent ([1]; first incubation: DTT 2 mM, CHAPS 2%, ATP 2 mM, Experiment #1, second incubation 30 min at 30° C, 125 μM NAD): 4%
- NADase activity (%) of the activity of toxin treated the same way without alkylating agent ([1]; first incubation: DTT 2 mM, CHAPS 2%, pyrophosphate 2 mM, Experiment #1, second incubation 30 min at 30° C, 125 μM NAD): 28%
- NADase activity (%) of the activity of toxin treated the same way without alkylating agent ([1]; first incubation: none, Experiment #1, second incubation 30 min at 30° C, 125 μM NAD): 62%
- NADase activity (%) of the activity of toxin treated the same way without alkylating agent ([1]; first incubation: none, Experiment #2, second incubation 15 min at 30° C, 25 μM NAD): 87%
- Time to inactivate toxin ([2]; at 30° C.): within about fifteen minutes
- Percent NADase activity relative to no addition to second incubation ([2]; first incubation: ATP): 153
- Percent NADase activity relative to no addition to second incubation ([2]; first incubation: ATP, CHAPS): 80
- Percent NADase activity relative to no addition to second incubation ([2]; first incubation: ATP, DTT): 107
- Percent NADase activity relative to no addition to second incubation ([2]; first incubation: ATP, DTT, CHAPS): 14
- Percent NADase activity relative to no addition to second incubation ([2]; first incubation: CHAPS): 108
- Percent NADase activity relative to no addition to second incubation ([2]; first incubation: DTT): 123
- Percent NADase activity relative to no addition to second incubation ([2]; first incubation: DTT, CHAPS): 84
- Percent NADase activity relative to no addition to second incubation ([2]; first incubation: none): 87
